Laboratory results as given in US20120065198A2, “Detection and Treatment of Schizophrenia” (Tokai University Educational System, priority 2007, published 2012).

System: pentosidine formation
Assay: Inhibitory activity on pentosidine formation, samples incubated with BSA and arabinose
Type: biochemical
Conditions: incubated with BSA and arabinose instead of patient plasma; for Pentosidine Formation Ratio (%) at 5 Concentration: Table 13
Description: Plasma was collected from hemodialysis patients prior to dialysis with the patients' consent, and the plasma was filtered and sterilized. To the plasma (450 μL) was added solutions of TM-2002 in dimethylsulfoxide (50 μL) (final concentrations: 0.8, 2.0, and 5.0 mM), and the mixtures were incubated for 1 week at 37° C. The levels of the pentosidine formation were measured.
Pentosidine was measured as follows. To each sample (50 μL) after incubation was added an equal volume of 10% trichloroacetic acid, and the mixture was subsequently centrifuged at 5,000 g for 5 minutes. After the supernatant was removed, the pellet was washed with 5% trichloroacetic acid (300 μL). The pellet was dried under reduced pressure, and subsequently hydrolyzed in a 6N HCl solution (100 μL) under a nitrogen atmosphere for 16 hours at 110° C. To the acid hydrolysate was then added 5N NaOH (100 μL) and 0.5 M phosphate buffer (pH 7.4) (200 μL); the mixture was subsequently filtered through a micropore filter with 0.5 μm pores and diluted with PBS. The concentration of the released pentosidine was measured by reverse-phase HPLC using a fluorescence detector (RF-10A, Shimadzu Corporation) (Miyata, T. et al.; Proc. Natl. Acad. Sci. USA, Vol. 93, p. 2353-2358, 1996). The effluent was monitored at the excitation/emission wavelength of 335/385 nm. Synthetic pentosidine was used as the reference material. The detection limit of pentosidine was 0.1 pmol/mg protein.
(2) Other edaravone analogues (Compounds (1) or (2)) were investigated for their inhibitory activities on pentosidine formation in the same manner as in Section (1) above, except that the samples were incubated with BSA and arabinose instead of the patient plasma. In the tables, “-” means that the test was not conducted.

Compound	Pentosidine Formation Ratio (%) at 5 mM Drug Concentration [%]	Pentosidine Formation Ratio (%) at 5 Concentration [%]
COc1cc(/C=C2\C(=O)N(c3ccc(Cl)cc3)N=C2C(F)(F)F)ccc1O [compound 47, 2-(4-chloro-phenyl)-4-(4-hydroxy-3-methoxy-benzylidene)-5-trifluoromethyl-2,4-dihydro-pyrazol-3-one]	28.86	
COC(=O)c1ccc(N2N=C(C)/C(=C/c3ccc(-c4ccc(S(N)(=O)=O)cc4)o3)C2=O)cc1 [compound 41, 4-{3-methyl-5-oxo-4-[5-(4-sulfamoyl-phenyl)-furan-2-ylmethylene]-4,5-dihydro-pyrazol-1-yl}-benzoic acid methyl ester]	37.81	
CCCC1=NN(c2ccccc2)C(=O)C1CC(=O)c1ccccc1 (stereo not drawn) [compound 20]	83.12	
CC1=NN(c2ccccc2)C(=O)C1(N1CCOCC1)N1CCOCC1 [compound 26, 5-methyl-4,4-dimorpholine-4-yl-2-phenyl-2,4-dihydro-pyrazol-3-one]	50.68	
CC1=NN(c2ccccc2)C(=O)/C1=C/c1ccc(Cl)cc1 [compound 67]	9.09	
COC(=O)c1cccc(-c2ccc(/C=C3\C(=O)N(c4ccc(S(C)(=O)=O)cc4)N=C3C)o2)c1 [compound 39]	16.87	
CC1=NN(c2ccccc2)C(=O)/C1=C/c1c(C)nn(-c2ccccc2)c1O [compound 66, 4-(5-hydroxy-3-methyl-1-phenyl-1H-pyrazol-4-ylmethylene)-5-methyl-2-phenyl-2,4-dihydro-pyrazol-3-one]	15.17	
Cc1ncc2c(c1O)C(c1c(C)nn(-c3ccccc3)c1O)OC2.Cl (stereo not drawn) [compound 69, 1-(5-hydroxy-3-methyl-1-phenyl-1H-pyrazol-4-yl)-6-methyl-1,3-dihydro-furo [3,4-c]pyridin-7-ol]		2.94
O=C(NC1=NN(c2ccccc2)C(=O)C1Sc1nnnn1-c1ccccc1)c1ccccc1 (stereo not drawn) [compound 14, N-[5-oxo-1-phenyl-4-(1-phenyl-1H-tetrazol-5-ylsulfanyl)-4,5-dihydro-1H-pyrazol-3-yl]-benzamide]	61.27	
CC1=NN(c2ccc(F)cc2)C(=O)/C1=C\c1c(C)nn(-c2ccccc2C)c1O [compound 46, 2-(4-fluoro-phenyl)-4-(5-hydroxy-3-methyl-1-o-toluyl-1H-pyrazol-4-ylmethylene)-5-methyl-2,4-dihydro-pyrazol-3-one]	15.69	
CC1=NN(c2cccc(Cl)c2)C(=O)/C1=C/c1cc2ccccc2[nH]c1=O [compound 38, 3-[1-(3-chloro-phenyl)-3-methyl-5-oxo-1,5-dihydro-pyrazol-4-ylidenemethyl]-1H-quinolin-2-one]	84.95	
CC1=NN(c2ccccc2)C(=O)C1C(c1ccccc1)c1c(C)nn(-c2ccccc2)c1O (stereo not drawn) [compound 9, 4-[(5-hydroxy-3-methyl-1-phenyl-1H-pyrazol-4-yl)-phenyl-methyl]-5-methyl-2-phenyl-2,4-dihydro-pyrazol-3-one]	7.52	
CC1=NN(c2cccc(C(=O)O)c2)C(=O)/C1=C\c1ccc(N2CCC(Cl)=N2)cc1 [compound 36, 3-{4-[4-(3-chloro-4,5-dihydro-pyrazol-1-yl)-benzylidene]-3-methyl-5-oxo-4,5-dihydro-pyrazol-1-yl}-benzoic acid]	26.37	
CC1=NN(c2ccc(C)c(C)c2)C(=O)/C1=C\c1ccc(O)cc1O [compound 54, 4-(2,4-dihydroxy-benzylidene)-2-(3,4-dimethyl-phenyl)-5-methyl-2,4-dihydro-pyrazol-3-one]	73.48	
COc1ccc(-c2csc(SC3C(=O)N(c4ccccc4)N=C3C)n2)cc1 (stereo not drawn) [compound 19]	40.19	
CC1=NN(c2cccc(Cl)c2)C(=O)/C1=N/O [compound 73, 2-(3-chloro-phenyl)-5-methyl-2H-pyrazol-3,4-dione-4-oxime]		66.42
CC1=NN(c2ccc(F)cc2)C(=O)C1C(c1ccccc1O)c1c(C)nn(-c2ccc(F)cc2)c1O (stereo not drawn) [compound 22, 2-(4-fluoro-phenyl)-4-[[1-(4-fluoro-phenyl)-5-hydroxy-3-methyl-1H-pyrazol-4-yl]-(2-hydroxy-phenyl)-methyl]-5-methyl-2,4-dihydro-pyrazol-3-one]	2.9	
CN(C)c1ccc(/C=C2\C(=O)N(c3ccc(S(N)(=O)=O)cc3)N=C2C(F)(F)F)cc1 [compound 51, 4-[4-(4-dimethylamino-benzyliden)-5-oxo-3-trifluoromethyl-4,5-dihydro-pyrazol-1-yl]-benzenesulfonamide]	41.68	

Compound	Pentosidine Formation Ratio (%) at 5 mM Drug Concentration [%]	Pentosidine Formation Ratio (%) at 5 Concentration [%]
CC1=NN(c2ccccc2Cl)C(=O)/C1=C/c1ccc(N(C)C)cc1 [compound 32, 2-(2-chloro-phenyl)-4-(4-dimethylamino-benzylidene)-5-methyl-2,4-dihydro-pyrazol-3-one]	8.7	
CC1=NN(c2ccccc2)C(=O)C1(O)S(=O)(=O)[O-].[Na+] (stereo not drawn) [compound 25, sodium 4-hydroxy-3-methyl-5-oxo-1-phenyl-4,5-dihydro-1H-pyrazole-4-sulfonate]	38.80	
CC(=O)c1ccc(N2N=C(C)/C(=C3\C(=O)Nc4ccccc43)C2=O)cc1 [compound 45, 3-[1-(4-acetyl-phenyl)-3-methyl-5-oxo-1,5-dihydro-pyrazol-4-ylidene]-1,3-dihydro-indol-2-one]	19.22	
CC1=NN(c2ccc3ccccc3c2)C(=O)/C1=C/c1ccc(O)cc1 [compound 58]	0.07	
CC1=NN(c2ccccc2)C(=O)C1Sc1nc(-c2ccc(C)cc2)cs1 (stereo not drawn) [compound 21, 5-methyl-2-phenyl-4-(4-p-toluyl-thiazol-2-ylsulfanyl)-2,4-dihydro-pyrazole-3-one]	42.07	
COc1cc(/C=C2/C(=O)N(c3ccc(Cl)c(C(=O)O)c3)N=C2C)c(Cl)cc1O [compound 61, 2-chloro-5-[4-(2-chloro-4-hydroxy-5-methoxy-benzylidene)-3-methyl-5-oxo-4,5-dihydro-pyrazol-1-yl]-benzoic acid]	46.52	
CC1=NN(c2cccc([N+](=O)[O-])c2)C(=O)C1Sc1nnnn1-c1ccccc1 (stereo not drawn) [compound 13, 5-methyl-2-(3-nitro-phenyl)-4-(1-phenyl-1H-tetrazol-5-ylsulfanyl)-2,4-dihydro-pyrazol-3-one]	74.66	
CC1=NN(c2cccc(F)c2)C(=O)/C1=C\c1ccc(N(C)C)cc1 [compound 35, 4-(4-dimethylamino-benzylidene)-2-(3-fluoro-phenyl)-5-methyl-2,4-dihydro-pyrazol-3-one]	76.31	
CC(=O)NC1C(=O)N(c2ccccc2)N=C1C (stereo not drawn) [compound 12, N-(3-methyl-5-oxo-1-phenyl-4,5-dihydro-1H-pyrazol-4-yl)-acetamide]	54.21	
CC1=NN(c2ccccc2)C(=O)C1C1C(=O)N(c2ccccc2)N=C1C (stereo not drawn) [compound 17, 5,5′-dimethyl-2,2′-diphenyl-2,4,2′,4′-tetrahydro [4,4′]bipyrazole-3,3′-dione]	60.96	
CCOC(=O)c1ccc(N2N=C(C(F)(F)F)/C(=C/c3cccs3)C2=O)cc1 [compound 50, 4-(5-oxo-4-thiophen-2-ylmethylene-3-trifluoromethyl-4,5-dihydro-pyrazol-1-yl)-benzoic acid ethyl ester]	63.17	
CC1=NN(c2ccccc2)C(=O)C1CCC(=O)O (stereo not drawn) [compound 7]	64.64	
CC1=NN(c2ccc(Cl)cc2)C(=O)/C1=C/c1cccc(O)c1 [compound 43, 2-(4-chloro-phenyl)-4-(3-hydroxy-benzylidene)-5-methyl-2,4-dihydropyrazol-3-one]	3.00	
CC1=NN(c2ccccc2)C(=O)/C1=C/c1ccc(OCc2ccccc2)cc1 [compound 72, 4-(4-benzyloxy-benzylidene)-5-methyl-2-phenyl-2,4-dihydropyrazol-3-one]		7.63
O=C(O)c1cccc(N2N=C(c3ccccc3)/C(=C/c3ccccc3O)C2=O)c1 [compound 37]	0.02	
CC1=NN(c2ccccc2)C(=O)/C1=C/N(C)C [compound 65, 4-dimethylaminomethylene-5-methyl-2-phenyl-2,4-dihydro-pyrazol-3-one]	62.43	
CCc1ccc(N2N=C(C)/C(=C\c3ccc(O)cc3)C2=O)cc1 [compound 48, 2-(4-ethyl-phenyl)-4-(4-hydroxy-benzylidene)-5-methyl-2,4-dihydro-pyrazol-3-one]	0.02	
COc1cc(/C=C2/C(=O)N(c3ccc(C(=O)OC(C)C)cc3)N=C2C)ccc1O [compound 60]	9.02	
